Assay results: PubChem BioAssay AID200 (DTP/NCI, 2004)
Where “and” joins values, the source holds several entries; their conditions need not be identical. Identical values can stand only once. Inconclusive results and toxic doses are left out. How the source made its calls: active means survival T/C of 150% or more; inactive means T/C below 125% in these data. Where a SMILES comes first, the peptide text is derived from it.

Tested on: B6C3F1 mice, B16 melanoma ip, median survival T/C
Assay: NCI In Vivo Anticancer Drug Screen. Data for tumor model B16 Melanoma (intraperitoneal) in B6C3F1 mice
Conditions: endpoint: median survival time, higher = longer survival
Summary of the method: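 Values are T/C ratios: the measurement in treated animals divided by that in vehicle-treated controls, using survival or tumor size in mice carrying transplantable tumors.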

[1] = dose: 12.5 mg/kg/injection, schedule: Q01DX009 (ip), vehicle: saline
[2] = dose: 25.0 mg/kg/injection, schedule: Q01DX009 (ip), vehicle: saline
[3] = dose: 6.25 mg/kg/injection, schedule: Q01DX009 (ip), vehicle: Klucel (hydroxypropylcellulose) (HPC)
[4] = dose: 12.5 mg/kg/injection, schedule: Q01DX009 (ip), vehicle: Klucel (hydroxypropylcellulose) (HPC)
[5] = dose: 25.0 mg/kg/injection, schedule: Q01DX009 (ip), vehicle: Klucel (hydroxypropylcellulose) (HPC)
[6] = dose: 3.0 mg/kg/injection, schedule: Q01DX009 (ip), vehicle: saline with Tween-80
[7] = dose: 6.0 mg/kg/injection, schedule: Q01DX009 (ip), vehicle: saline with Tween-80
[8] = dose: 50.0 mg/kg/injection, schedule: Q01DX009 (ip), vehicle: Klucel (hydroxypropylcellulose) (HPC)
[9] = dose: 100.0 mg/kg/injection, schedule: Q01DX009 (ip), vehicle: Klucel (hydroxypropylcellulose) (HPC)
[10] = dose: 200.0 mg/kg/injection, schedule: Q01DX009 (ip), vehicle: Klucel (hydroxypropylcellulose) (HPC)
[11] = dose: 1.56 mg/kg/injection, schedule: Q01DX009 (ip), vehicle: Klucel (hydroxypropylcellulose) (HPC)
[12] = dose: 3.12 mg/kg/injection, schedule: Q01DX009 (ip), vehicle: Klucel (hydroxypropylcellulose) (HPC)
[13] = dose: 50.0 mg/kg/injection, schedule: Q01DX009 (ip), vehicle: saline with Tween-80
[14] = dose: 100.0 mg/kg/injection, schedule: Q01DX009 (ip), vehicle: saline with Tween-80
[15] = dose: 200.0 mg/kg/injection, schedule: Q01DX009 (ip), vehicle: saline with Tween-80
[16] = dose: 25.0 mg/kg/injection, schedule: Q01DX009 (ip), vehicle: saline with Tween-80
[17] = dose: 50.0 mg/kg/injection, schedule: Q01DX009 (ip), vehicle: saline
[18] = dose: 400.0 mg/kg/injection, schedule: Q01DX009 (ip), vehicle: Klucel (hydroxypropylcellulose) (HPC)
[19] = dose: 0.31 mg/kg/injection, schedule: Q01DX009 (ip), vehicle: saline
[20] = dose: 0.62 mg/kg/injection, schedule: Q01DX009 (ip), vehicle: saline
[21] = dose: 1.25 mg/kg/injection, schedule: Q01DX009 (ip), vehicle: saline
[22] = dose: 2.5 mg/kg/injection, schedule: Q01DX009 (ip), vehicle: saline
[23] = dose: 5.0 mg/kg/injection, schedule: Q01DX009 (ip), vehicle: saline

Measured: T/C

Cc1cc2nc3ccc(N)cc3oc-2cc1=[N+](C)C
inactive: [1] 106 % of control | [2] 112 % of control

O=Cc1c(CO)cc(O)c(O)c1O
inactive: dose: 3.13 mg/kg/injection, schedule: Q01DX009 (ip), vehicle: Klucel (hydroxypropylcellulose) (HPC) 115 % of control | [3] 104 % of control | [4] 89 % of control | [5] 88 % of control

Nc1nc(N)c2c(ccc3c2ccn3Cc2cccc([N+](=O)[O-])c2)n1
inactive: dose: 0.19 mg/kg/injection, schedule: Q01DX009 (ip), vehicle: saline with Tween-80 107 % of control | dose: 0.2 mg/kg/injection, schedule: Q01DX009 (ip), vehicle: saline with Tween-80 102 % of control | dose: 0.38 mg/kg/injection, schedule: Q01DX009 (ip), vehicle: saline with Tween-80 98 % of control | dose: 0.4 mg/kg/injection, schedule: Q01DX009 (ip), vehicle: saline with Tween-80 101 % of control | dose: 0.75 mg/kg/injection, schedule: Q01DX009 (ip), vehicle: saline with Tween-80 116 % of control | dose: 0.78 mg/kg/injection, schedule: Q01DX009 (ip), vehicle: saline with Tween-80 103 % of control | dose: 1.5 mg/kg/injection, schedule: Q01DX009 (ip), vehicle: saline with Tween-80 93 % of control and 100 % of control | dose: 1.56 mg/kg/injection, schedule: Q01DX009 (ip), vehicle: saline with Tween-80 99 % of control | [6] 112 % of control and 103 % of control | [7] 108 % of control and 116 % of control

CC1=C(C(N)=O)C(c2ccccc2)NC(=S)N1 (stereo not given)
inactive: [5] 106 % of control | [8] 105 % of control | [9] 100 % of control | [10] 117 % of control

Cc1cnc(/C=N\NC(N)=S)c2cccc(N)c12
inactive: [6] 108 % of control | [7] 116 % of control

O=P(O)(NCCCl)NCCCl
inactive: dose: 25.0 mg/kg/injection, schedule: Q01DX001 (ip), vehicle: saline with Tween-80 114 % of control and 119 % of control | dose: 50.0 mg/kg/injection, schedule: Q01DX001 (ip), vehicle: saline with Tween-80 115 % of control
active: dose: 100.0 mg/kg/injection, schedule: Q01DX001 (ip), vehicle: saline with Tween-80 159 % of control and 161 % of control | dose: 200.0 mg/kg/injection, schedule: Q01DX001 (ip), vehicle: saline with Tween-80 168 % of control and 182 % of control

CCCC(NC(=O)CNC(=O)OCc1ccccc1)C(=O)O (stereo not given) (HELM PEPTIDE1{[O=C(OCc1ccccc1)[*:2]].G.[CCCC(N[*:1])C(=O)O]}$$$$V2.0)
inactive: [9] 104 % of control | [10] 92 % of control

NC(=O)C#CC(N)=O
inactive: dose: 0.06 mg/kg/injection, schedule: Q01DX009 (ip), vehicle: Klucel (hydroxypropylcellulose) (HPC) 101 % of control | dose: 0.12 mg/kg/injection, schedule: Q01DX009 (ip), vehicle: Klucel (hydroxypropylcellulose) (HPC) 102 % of control | dose: 0.23 mg/kg/injection, schedule: Q01DX009 (ip), vehicle: Klucel (hydroxypropylcellulose) (HPC) 97 % of control | dose: 0.45 mg/kg/injection, schedule: Q01DX009 (ip), vehicle: Klucel (hydroxypropylcellulose) (HPC) 100 % of control | dose: 0.9 mg/kg/injection, schedule: Q01DX009 (ip), vehicle: Klucel (hydroxypropylcellulose) (HPC) 102 % of control

CCCNC1=C(C)C(=O)C2=C(C1=O)[C@H](COC(N)=O)[C@]1(OC)[C@@H]3N[C@@H]3CN21
active: dose: 1.56 mg/kg/injection, schedule: Q01DX009 (ip), vehicle: saline 155 % of control | dose: 3.12 mg/kg/injection, schedule: Q01DX009 (ip), vehicle: saline 173 % of control
inactive: dose: 0.39 mg/kg/injection, schedule: Q01DX009 (ip), vehicle: Klucel (hydroxypropylcellulose) (HPC) 104 % of control | dose: 0.39 mg/kg/injection, schedule: Q01DX009 (ip), vehicle: saline 115 % of control | dose: 0.78 mg/kg/injection, schedule: Q01DX009 (ip), vehicle: Klucel (hydroxypropylcellulose) (HPC) 105 % of control | [11] 105 % of control | [12] 96 % of control | [3] 111 % of control

c1nc(N2CC2)c2cnn(C3CCCCO3)c2n1 (stereo not given)
inactive: [13] 91 % of control | [14] 93 % of control | [15] 91 % of control

CN(C)CCNc1ccc([N+](=O)[O-])c2sc3ccccc3c(=O)c12
inactive: dose: 6.25 mg/kg/injection, schedule: Q01DX009 (ip), vehicle: saline with Tween-80 113 % of control | dose: 6.25 mg/kg/injection, schedule: Q01DX009 (ip), vehicle: saline 105 % of control | dose: 12.5 mg/kg/injection, schedule: Q01DX009 (ip), vehicle: saline with Tween-80 117 % of control and 102 % of control | [1] 101 % of control | [16] 118 % of control | [2] 103 % of control | [17] 106 % of control

O=c1[nH]c(=O)n(C2CC(O)C(CO)O2)cc1Br (stereo not given)
inactive: [5] 92 % of control | [8] 110 % of control | [9] 110 % of control | [10] 116 % of control | [18] 114 % of control | dose: 800.0 mg/kg/injection, schedule: Q01DX009 (ip), vehicle: Klucel (hydroxypropylcellulose) (HPC) 109 % of control

O=C1c2ccccc2C(Cl)(c2ccc(Cl)cc2)c2ccc(Cl)cc21 (stereo not given)
inactive: [16] 114 % of control | dose: 36.0 mg/kg/injection, schedule: Q01DX009 (ip), vehicle: saline with Tween-80 109 % of control | [13] 116 % of control and 120 % of control | dose: 60.0 mg/kg/injection, schedule: Q01DX009 (ip), vehicle: saline with Tween-80 111 % of control | [14] 115 % of control and 107 % of control | dose: 166.67 mg/kg/injection, schedule: Q01DX009 (ip), vehicle: saline with Tween-80 122 % of control | [15] 117 % of control | dose: 277.78 mg/kg/injection, schedule: Q01DX009 (ip), vehicle: saline with Tween-80 103 % of control

CC1OC2CC(O)C1(O)C1=C2C(O)=C(C(N)=O)C(=N)C1=O (stereo not given)
inactive: [19] 106 % of control | [20] 98 % of control | [21] 104 % of control | [22] 98 % of control | [23] 102 % of control

C=C1C(=O)OCC1C(=O)O (stereo not given)
inactive: dose: 4.0 mg/kg/injection, schedule: Q01DX009 (ip), vehicle: saline 102 % of control and 103 % of control | dose: 8.0 mg/kg/injection, schedule: Q01DX009 (ip), vehicle: saline 102 % of control | dose: 16.0 mg/kg/injection, schedule: Q01DX009 (ip), vehicle: saline 88 % of control and 93 % of control | dose: 32.0 mg/kg/injection, schedule: Q01DX009 (ip), vehicle: saline 93 % of control

CN(C(=S)S(=O)(=O)C12CC3CC(CC(C3)C1)C2)c1ccccc1
inactive: [11] 104 % of control | [12] 98 % of control | [3] 104 % of control | [4] 101 % of control | [5] 114 % of control | [8] 104 % of control

COC(=O)C(CSCc1ccccc1)NC(=O)C(C)NC(=O)OCc1ccccc1 (stereo not given)
inactive: [8] 97 % of control | [9] 90 % of control | [10] 90 % of control

c1cnc2ncncc2n1
inactive: [1] 110 % of control | [2] 107 % of control | [17] 97 % of control | dose: 100.0 mg/kg/injection, schedule: Q01DX009 (ip), vehicle: saline 91 % of control | dose: 200.0 mg/kg/injection, schedule: Q01DX009 (ip), vehicle: saline 99 % of control

COc1cc(OC)c(OC)cc1/C=C\c1ccnc2ccccc12
inactive: [4] 98 % of control | [5] 105 % of control | [8] 108 % of control and 111 % of control | [9] 120 % of control and 107 % of control | [10] 97 % of control
active: [18] 151 % of control

CC1OC2CC(=O)OC2C2=C1C(=O)c1cc(-c3cc(O)c4c(c3)C(=O)C3=C(C4=O)C4OC(=O)CC4OC3C)cc(O)c1C2=O (stereo not given)
inactive: dose: 0.5 mg/kg/injection, schedule: Q01DX009 (ip), vehicle: other 90 % of control

CN(C)[C@@H]1C(=O)C(C(=O)NCN2CCN(C(=N)N=C(N)N)CC2)=C(O)[C@@]2(O)C(=O)C3=C(O)c4c(O)cccc4[C@@](C)(O)[C@H]3C[C@@H]12
inactive: [19] 94 % of control | [20] 98 % of control | [21] 111 % of control and 103 % of control | [22] 90 % of control and 103 % of control | [23] 101 % of control and 103 % of control
